Experiments:
Type in all cases: in vivo
[1] = test system: Housefly [Musca domestica]; test: Housefly insecticidal test (HF); details: per 25 female houseflies, 48 hours
[2] = test system: Tobacco Budworm [Heliothis virescens (Fabricius)]; test: Tobacco budworm contact test (TBW-C); details: second-instar larvae, 5 days, percent in solution
Method in brief: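 Cotton cotyledons dipped 2–3 s in compound in 50:50 acetone–water, dried, then infested with 5 second-instar larvae and held 5 days at high humidity before scoring mortality.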

[3] = test system: Tobacco Budworm [Heliothis virescens (Fabricius)] eggs; test: Tobacco budworm egg test (TBW-E); details: percent in solution
[4] = test system: Beet Armyworm (Spodoptera exigua); test: Beet armyworm test (BAW); details: second-instar larvae, five days, percent in solution
Method in brief: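 Sugar beet leaves were dipped 2-3 s in compound diluted in 50-50 acetone-water, dried, then infested with five second-instar larvae in humid dishes. Mortality was scored after five days at concentrations from 0.1% downward. LC50 was taken from dosage-mortality curves as percent compound in solution.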

[5] = test system: Cabbage Looper [Trichoplusia ni (Hubner)]; test: Cabbage looper test (CL); details: second-instar larvae, 3-5 days, percent in solution
[6] = test system: Aster Leafhopper [Macrosteles fascifrens (Stal)]; test: Aster leafhopper test (LH); details: adults/nymphs, 48 hours, percent in solution
[7] = test system: Rice water weevil [Lissorhoptrus oryzophilus (Kuschel)]; test: Rice water weevil test (RWW); details: per weevil, topical, female adults, 48 hours
Protocol: (§1) The compounds in Tables 1 and 2 above were tested for insecticidal activity using the following testing procedures. LC50 values, based on the results of these tests and calculated according to dosage-mortality curves, are expressed in Table 3.
Rice water weevil [Lissorhoptrus oryzophilus (Kuschel)]
Test compounds were diluted in acetone. Droplets (1 ul) of test solutions were applied to the ventral abdomens of ten female adult weevils. The treated weevils were placed in containers with wet cotton balls and rice foliage. The containers were covered and kept at a temperature of about 25° C. Mortality was recorded after 48 hours. […] The LC50 values are expressed below in Table 3 under the heading "RWW" in terms of μg of test compound per weevil.

[8] = test system: Maize weevil [Sitophilus Zeamais (Motschulsky)]; test: Maize weevil test (MW); details: adult weevils, treated corn seeds, 48 hours, percent in solution
Method in brief: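 Adult weevils (10) were placed with four corn seeds that had been dipped 2-3 s in compound dissolved in 50:50 acetone:water, then dried, and held at about 25° C. Mortality was scored at 48 h. LC50 was taken from dosage-mortality curves and expressed as percent compound in solution, from a 0.01% top concentration.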

[9] = test system: Black Bean Aphid [Aphis fabae (Scop.)]; test: Black bean aphid test (BBA); details: percent of test compound in sprayed solution, 48 hours
Protocol: as §1
Black Bean Aphid [Aphis fabae (Scop.)]
Nasturtium plants (Tropaeolum sp.) approximately 5 cm tall, were transplanted into sandy loam soil in small cups and infested with 25-50 black bean aphids of mixed ages. Twenty-four hours later they were sprayed to the point of runoff with 50-50 acetone-water solutions of the test compounds. Treated plants were held in the greenhouse and mortality was recorded after 48 hours. Test concentrations ranged from 0.05% downward. The LC-50 value is expressed below in Table 3 under the heading "BBA" in terms of percent of the test compound in the sprayed solution.

| Compound | LC50 HF [1] [µg] | LC50 TBW C [2] [%] | LC50 TBW E [3] [%] | LC50 BAW [4] [%] | LC50 CL [5] [%] | LC50 LH [6] [%] | LC50 RWW [7] [µg] | LC50 MW [8] [%] | LC50 BBA [9] [%] |
| --- | --- | --- | --- | --- | --- | --- | --- | --- | --- |
| CC(C)C(=Nc1cc(F)cc(F)c1)OCc1cccc(Oc2ccccc2)c1 [Compound 55] | > 100 | 0.004 | 0.06 | 0.006 | 0.0017 | 0.0005 | > 2.5 |  |  |
| CC(C)C(=Nc1ccc(F)c(Cl)c1)OCc1cccc(Oc2ccccc2)c1 [Compound 81] | 4 | 0.0009 | 0.007 | 0.003 | 0.0006 | 0.0003 | > 0.5 | 0.005 |  |
| CC(C)C(=Nc1ccc(F)c(Cl)c1)OCc1cccc(Oc2ccc(F)cc2)c1 [Compound 89] | 5 | 0.0005 | 0.04 | 0.009 | 0.00003 | 0.001 | > 2.5 | 0.005 |  |
| CC(C)C(=Nc1ccc2c(c1)OCO2)OCc1cccc(Oc2ccccc2)c1 [Compound 180] | 2 | 0.003 | 0.03 | 0.005 | 0.0004 | 0.0015 | > 2.5 | 0.008 |  |
| CC(C)C(=Nc1ccc(F)c(Cl)c1)OCc1ccc(F)c(Oc2ccc(F)cc2)c1 [Compound 216] | 2 | 0.00018 | 0.005 | 0.0007 | 0.000007 | 0.00025 | 0.067 | 0.0017 |  |
| CC(C)C(=Nc1ccc(F)c(Cl)c1)OCc1cccc(Oc2ccc(Cl)cc2)c1 [Compound 239] | 14 | 0.0005 | 0.025 | 0.005 | 0.00015 | 0.002 | > 2.5 | 0.006 |  |
| CC(C)C(=Nc1ccc(F)c(Cl)c1)OCc1ccc(F)c(Oc2ccc(Cl)cc2)c1 [Compound 267] | 8.4 | 0.0003 | 0.015 | 0.0012 | 0.00008 | 0.002 | 0.11 | 0.0027 |  |
| CC(C)C(=Nc1ccc(Cl)cc1)OCc1cccc(Oc2ccc(Cl)cc2)c1 [Compound 269] | 25 | 0.001 | 0.04 | 0.0024 | 0.0003 | 0.003 | > 2.5 | > 0.01 |  |
| CC(C)C(=Nc1ccc(F)c(Br)c1)OCc1ccc(F)c(Oc2ccc(F)cc2)c1 [Compound 273] | 7 | 0.00025 | 0.015 | 0.0017 | 0.000018 | 0.0003 | > 2.5 | 0.004 |  |
| CC(C)C(=Nc1ccc(F)c(C(F)(F)F)c1)OCc1ccc(F)c(Oc2ccc(F)cc2)c1 [Compound 277] | 4 | 0.0005 | 0.013 | 0.005 | 0.00001 | 0.0003 | 0.065 | > 0.01 |  |
| CC(C)C(=Nc1ccc(F)c(F)c1)OCc1ccc(F)c(Oc2ccc(F)cc2)c1 [Compound 278] | 3 | 0.00026 | 0.008 | 0.0012 | 0.00002 | 0.0003 | 0.085 | 0.0063 |  |
| CC(C)C(=Nc1ccc(OC(F)(F)F)cc1)OCc1ccc(F)c(Oc2ccc(F)cc2)c1 [Compound 286] | 34 | 0.00017 | 0.005 | 0.0004 | 0.000024 | 0.0006 | 0.09 | 0.0039 |  |
| CC(C)C(=Nc1ccc(OC(F)(F)F)cc1)OCc1ccc(F)c(Oc2ccc(Cl)cc2)c1 [Compound 323] | > 100 | 0.00065 | 0.045 | 0.0025 | 0.0006 | 0.05 | 0.16 | 0.0075 |  |
| CC(C)C(=Nc1ccc(C(F)(F)F)cc1)OCc1ccc(F)c(Oc2ccccc2)c1 [Compound 337] | 21 | 0.0005 | 0.008 | 0.0005 | 0.0007 |  | 0.067 | 0.0053 |  |
| CC(C)C(=Nc1ccc(F)c(Cl)c1F)OCc1cccc(Oc2ccc(F)cc2)c1 [Compound 352] | 4.6 | 0.0004 | > 0.1 | > 0.1 | 0.000065 | 0.0004 | > 2.5 | 0.0075 |  |
| C=CCOc1cccc(COC(=Nc2ccc(F)c(Cl)c2)C(C)C)c1 [Compound 479] | 66 |  | > 0.1 |  | 0.013 | > 0.05 |  | > 0.01 | > 0.05 |
| C=CCOc1cccc(COC(=Nc2cccc(C(F)(F)F)c2)C(C)C)c1 [Compound 480] | > 100 |  | > 0.1 |  | 0.01 |  |  |  | > 0.05 |
| CC(C)C(=Nc1ccc(C(F)(F)F)cc1)OCc1cccc(Cc2ccccc2)c1 [Compound 535] | 41 |  |  |  | > 0.1 | > 0.05 |  | > 0.01 | > 0.05 |
| CC(C)C(=Nc1ccc(F)c(Cl)c1)OCc1cccc(Cc2ccccc2)c1 [Compound 537] | 20 |  |  |  | > 0.1 | > 0.05 |  | > 0.01 | > 0.05 |

Source: patent US5089623A, “Certain imidate insecticides” (Imperial Chemical Industries Plc, priority 1990, dated 1992)
